PubChem BioAssay AID256 (DTP/NCI, 2004)
“And” between values parts separate entries of the source, which are not always exact repeats. Equal entries are not always repeated. Inconclusive results and toxic doses are left out. How the source made its calls: active means survival T/C of 150% or more; inactive means T/C below 125% in these data.

Test system: CD2F1 mice, L1210 leukemia ip, survival T/C
Assay: NCI In Vivo Anticancer Drug Screen. Data for tumor model L1210 Leukemia (intraperitoneal) in CD2F1 (CDF1) mice
Details: higher = longer survival
Procedure, shortened: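 Antitumor effect is scored in animals hosting a serially transplanted tumor. Values compare compound-dosed animals against vehicle-only controls as a simple quotient.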

[1] = endpoint: mean survival time, dose: 50.0 mg/kg/injection, schedule: Q01DX009 (ip), vehicle: saline with Tween-80
[2] = endpoint: mean survival time, dose: 100.0 mg/kg/injection, schedule: Q01DX009 (ip), vehicle: saline with Tween-80
[3] = endpoint: mean survival time, dose: 200.0 mg/kg/injection, schedule: Q01DX009 (ip), vehicle: saline with Tween-80
[4] = endpoint: mean survival time, dose: 50.0 mg/kg/injection, schedule: Q01DX009 (ip), vehicle: Klucel (hydroxypropylcellulose) (HPC)
[5] = endpoint: mean survival time, dose: 100.0 mg/kg/injection, schedule: Q01DX001 (ip), vehicle: saline
[6] = endpoint: mean survival time, dose: 200.0 mg/kg/injection, schedule: Q01DX001 (ip), vehicle: saline
[7] = endpoint: mean survival time, dose: 400.0 mg/kg/injection, schedule: Q01DX001 (ip), vehicle: saline
[8] = endpoint: mean survival time, dose: 400.0 mg/kg/injection, schedule: Q01DX009 (ip), vehicle: saline with Tween-80
[9] = endpoint: mean survival time, dose: 100.0 mg/kg/injection, schedule: Q04DX003 (ip), vehicle: saline with Tween-80
[10] = endpoint: mean survival time, dose: 200.0 mg/kg/injection, schedule: Q04DX003 (ip), vehicle: saline with Tween-80
[11] = endpoint: mean survival time, dose: 400.0 mg/kg/injection, schedule: Q04DX003 (ip), vehicle: saline with Tween-80

Measured: T/C

O=C1NC(O)c2ccccc2O1 (stereo not drawn)
inactive: endpoint: mean survival time, dose: 12.5 mg/kg/injection, schedule: Q01DX009 (ip), vehicle: saline with Tween-80 101 % of control | endpoint: mean survival time, dose: 12.5 mg/kg/injection, schedule: Q01DX009 (ip), vehicle: suspension in saline 95 % of control | endpoint: mean survival time, dose: 25.0 mg/kg/injection, schedule: Q01DX009 (ip), vehicle: saline with Tween-80 96 % of control | endpoint: mean survival time, dose: 25.0 mg/kg/injection, schedule: Q01DX009 (ip), vehicle: suspension in saline 97 % of control | [1] 98 % of control | endpoint: mean survival time, dose: 50.0 mg/kg/injection, schedule: Q01DX009 (ip), vehicle: suspension in saline 104 % of control | [2] 101 % of control and 108 % of control | endpoint: mean survival time, dose: 100.0 mg/kg/injection, schedule: Q01DX009 (ip), vehicle: suspension in saline 101 % of control | [3] 115 % of control and 106 % of control | endpoint: mean survival time, dose: 200.0 mg/kg/injection, schedule: Q01DX009 (ip), vehicle: suspension in saline 119 % of control | endpoint: mean survival time, dose: 400.0 mg/kg/injection, schedule: Q01DX009 (ip), vehicle: suspension in saline 95 % of control

OCC1OC([Se])C(O)C(O)C1O.[CH3][Sb][CH3] (stereo not drawn)
inactive: [4] 88 % of control

COC1OC(COC(c2ccccc2)(c2ccccc2)c2ccccc2)C(O)C(O)C1O (stereo not drawn)
inactive: [5] 100 % of control | [2] 106 % of control | [6] 97 % of control | [3] 96 % of control | [7] 92 % of control | [8] 98 % of control

CCOC(=O)NC1CCC1NC(=O)OCC (stereo not drawn)
inactive: [9] 95 % of control | [10] 106 % of control | [11] 107 % of control

COc1cc(/C(C)=N\O)ccc1O
inactive: endpoint: mean survival time, dose: 100.0 mg/kg/injection, schedule: Q01DX001 (ip), vehicle: other 102 % of control | endpoint: mean survival time, dose: 100.0 mg/kg/injection, schedule: Q01DX009 (ip), vehicle: other 107 % of control | endpoint: mean survival time, dose: 200.0 mg/kg/injection, schedule: Q01DX001 (ip), vehicle: other 108 % of control | endpoint: mean survival time, dose: 200.0 mg/kg/injection, schedule: Q01DX009 (ip), vehicle: other 102 % of control | endpoint: mean survival time, dose: 400.0 mg/kg/injection, schedule: Q01DX001 (ip), vehicle: other 98 % of control | endpoint: mean survival time, dose: 400.0 mg/kg/injection, schedule: Q01DX009 (ip), vehicle: other 90 % of control

O=CN(CCNc1ccccc1)c1ccccc1
inactive: [9] 96 % of control | [10] 101 % of control | [11] 95 % of control

O=[N+]([O-])c1ccc(S(=O)(=O)Cc2ccccc2)c([N+](=O)[O-])c1
inactive: endpoint: mean survival time, dose: 75.0 mg/kg/injection, schedule: Q01DX001 (ip), vehicle: other 98 % of control | endpoint: mean survival time, dose: 150.0 mg/kg/injection, schedule: Q01DX001 (ip), vehicle: other 93 % of control | endpoint: mean survival time, dose: 300.0 mg/kg/injection, schedule: Q01DX001 (ip), vehicle: other 106 % of control

CN/N=C1\CCC2(C)C(CCC3C4CCC(O)C4(C)CCC32)C1 (stereo not drawn)
inactive: endpoint: mean survival time, dose: 12.5 mg/kg/injection, schedule: Q01DX009 (ip), vehicle: Klucel (hydroxypropylcellulose) (HPC) 88 % of control | endpoint: mean survival time, dose: 25.0 mg/kg/injection, schedule: Q01DX009 (ip), vehicle: Klucel (hydroxypropylcellulose) (HPC) 89 % of control | [4] 91 % of control and 105 % of control

CCOC(=O)Cc1nnc(N)s1
inactive: [9] 96 % of control | [10] 100 % of control | [11] 102 % of control

O=C(O)CN(CC(=O)O)CC(O)CN(CC(=O)O)CC(=O)O
inactive: [5] 98 % of control | [6] 105 % of control | [7] 93 % of control

COC(=O)C(N)CS (stereo not drawn)
inactive: [9] 101 % of control | [10] 101 % of control | [11] 106 % of control

CCC1(O)C(=O)OCc2c1cc1n(c2=O)Cc2cc3cc(OC)c(OC)cc3nc2-1 (stereo not drawn)
inactive: endpoint: median survival time, dose: 6.25 mg/kg/injection, schedule: Q04DX002 (ip), vehicle: saline with Tween-80 103 % of control | endpoint: median survival time, dose: 12.5 mg/kg/injection, schedule: Q04DX002 (ip), vehicle: saline with Tween-80 101 % of control | endpoint: median survival time, dose: 25.0 mg/kg/injection, schedule: Q04DX002 (ip), vehicle: saline with Tween-80 103 % of control | endpoint: median survival time, dose: 50.0 mg/kg/injection, schedule: Q04DX002 (ip), vehicle: saline with Tween-80 94 % of control

COc1ccccc1C(O)(C(=O)OCCSC)c1ccccc1OC
inactive: endpoint: mean survival time, dose: 100.0 mg/kg/injection, schedule: Q04DX003 (ip), vehicle: saline 93 % of control | endpoint: mean survival time, dose: 200.0 mg/kg/injection, schedule: Q04DX003 (ip), vehicle: saline 94 % of control | endpoint: mean survival time, dose: 400.0 mg/kg/injection, schedule: Q04DX003 (ip), vehicle: saline 88 % of control

COCCNC1=C(C)C(=O)C2=C(C1=O)[C@H](COC(N)=O)[C@]1(OC)[C@@H]3N[C@@H]3CN21
inactive: endpoint: mean survival time, dose: 3.0 mg/kg/injection, schedule: Q01DX001 (ip), vehicle: distilled water + Tween-80 114 % of control | endpoint: mean survival time, dose: 24.0 mg/kg/injection, schedule: Q01DX001 (ip), vehicle: distilled water + Tween-80 123 % of control

O=C(CCC(=O)Nc1ccc(S(=O)(=O)NCCO)cc1)Nc1ccc(S(=O)(=O)NCCO)cc1
inactive: endpoint: mean survival time, dose: 12.5 mg/kg/injection, schedule: Q01DX001 (ip), vehicle: saline with Tween-80 105 % of control | endpoint: mean survival time, dose: 12.5 mg/kg/injection, schedule: Q04DX002 (ip), vehicle: saline with Tween-80 96 % of control | endpoint: mean survival time, dose: 25.0 mg/kg/injection, schedule: Q01DX001 (ip), vehicle: saline with Tween-80 107 % of control | endpoint: mean survival time, dose: 25.0 mg/kg/injection, schedule: Q04DX002 (ip), vehicle: saline with Tween-80 96 % of control | endpoint: mean survival time, dose: 50.0 mg/kg/injection, schedule: Q01DX001 (ip), vehicle: saline with Tween-80 97 % of control | endpoint: mean survival time, dose: 50.0 mg/kg/injection, schedule: Q04DX002 (ip), vehicle: saline with Tween-80 86 % of control

Cc1cccc(C)c1NC(=O)c1cccc(Cl)c1
inactive: [2] 94 % of control | [9] 98 % of control | [3] 98 % of control | [10] 96 % of control | [8] 94 % of control | [11] 98 % of control

CSc1ccc(SC)nn1
inactive: [2] 102 % of control | [3] 96 % of control | [8] 91 % of control

NC(=Nc1ccc(Cl)cc1)/N=C(/N)N1CCN(/C(N)=N/C(N)=Nc2ccc(Cl)cc2)CC1
inactive: [1] 104 % of control | [9] 98 % of control | [10] 98 % of control

O=C(NC/C=C/Br)NC1CCCc2ccccc21 (stereo not drawn)
inactive: endpoint: mean survival time, dose: 100.0 mg/kg/injection, schedule: Q04DX003 (ip), vehicle: other 96 % of control | endpoint: mean survival time, dose: 200.0 mg/kg/injection, schedule: Q04DX003 (ip), vehicle: other 102 % of control | endpoint: mean survival time, dose: 400.0 mg/kg/injection, schedule: Q04DX003 (ip), vehicle: other 96 % of control

CC(C)C1(C(=O)NNC(=O)CCCc2ccc(N(CCCl)CCCl)cc2)OC2(O)CCCCCN2C1=O (stereo not drawn)
inactive: endpoint: mean survival time, dose: 6.25 mg/kg/injection, schedule: Q04DX003 (ip), vehicle: DMSO 101 % of control | endpoint: mean survival time, dose: 12.5 mg/kg/injection, schedule: Q04DX003 (ip), vehicle: DMSO 95 % of control | endpoint: mean survival time, dose: 25.0 mg/kg/injection, schedule: Q04DX003 (ip), vehicle: DMSO 114 % of control

CCNC(=O)[B-][N+](C)(C)C
inactive: endpoint: median survival time, dose: 12.5 mg/kg/injection, schedule: Q01DX009 (ip), vehicle: Klucel (hydroxypropylcellulose) (HPC) 108 % of control | endpoint: median survival time, dose: 25.0 mg/kg/injection, schedule: Q01DX009 (ip), vehicle: Klucel (hydroxypropylcellulose) (HPC) 106 % of control | endpoint: median survival time, dose: 50.0 mg/kg/injection, schedule: Q01DX009 (ip), vehicle: Klucel (hydroxypropylcellulose) (HPC) 106 % of control | endpoint: median survival time, dose: 100.0 mg/kg/injection, schedule: Q01DX009 (ip), vehicle: Klucel (hydroxypropylcellulose) (HPC) 107 % of control | endpoint: median survival time, dose: 200.0 mg/kg/injection, schedule: Q01DX009 (ip), vehicle: Klucel (hydroxypropylcellulose) (HPC) 106 % of control
